# Measured values taken from patent publication US20260034277A1, “SYSTEMS AND METHODS FOR PATHOGEN INACTIVATION OF BLOOD PRODUCTS” (Cerus Corporation, priority 2024, published 2026).
# Experiments:
# [1] = S-59 photoconversion in platelets after dosing-device delivery, HPLC pre- and post-illumination; assay type: physicochemical; conditions: target 55 μM
# Protocol: After confirming the accuracy of S-59 dosing into PAS, the next study evaluated dosing of S-59 into a blood component, platelets suspended in plasma and PAS, and photoconversion of S-59 post-UVA treatment to determine residual S-59 levels and generate (e.g., plot) a volume to light dose curve, similar to Example 1. Different size illumination containers (1.0 L and 1.3 L) were evaluated with multiple different platelet volumes and multiple different UVA light doses used for photochemical treatment of each volume and container size.
# More specifically, platelets suspended in […]/53% PAS at volumes of 200 mL, 250 mL or 300 mL in a 1.0 L illumination container, and 300 mL, 350 mL or 450 mL in a 1.3 L illumination container, were dosed at varying input volumes of the S-59 psoralen compound to achieve a target final concentration of 55 μM. Samples were taken to confirm pre-illumination S-59 concentration and each of the S-59 containing platelet volumes was then illuminated with different light doses as shown in the following Tables 8A and 8B using an illuminator device with LED light sources (e.g., narrow bandwidth) having peak wavelength between 340-350 nm.
# (§1) Pathogen inactivation of both viruses and bacteria was also tested using dosing device system-based quantized dosing of amotosalen and the treatment parameters described above. In one study, four units of platelets in 47% plasma/53% PAS at a higher 450 mL volume were inoculated in a 1.3 L illumination container with bluetongue virus (BTV) at a target pathogen input concentration of approximately 5.0 log PFU/mL per unit and dosed with amotosalen (S-59) to achieve at a target concentration of 55 μM. The units were mixed, and samples were collected from each unit prior to UV illumination to determine pre-treatment viral titers and S-59 concentration. The BTV-contaminated platelet units were then subjected to a UVA light dose of 6.3 J/cm^2 using an illuminator with LED light sources having peak wavelength between 340-350 nm. Samples were collected post-illumination, and both the pre- and post-UVA illumination samples were analyzed by standard plaque assay to determine the level of virus inactivation and by HPLC to determine the S-59 concentration.
# A similar study was performed with the bacterium Klebsiella pneumoniae. Four units of platelets in 47% plasma/53% PAS at a volume of 450 mL were inoculated in a 1.3 L illumination container with an overnight culture of Klebsiella pneumoniae at a target input pathogen concentration of approximately 8 log CFU/mL per unit and dosed with S-59 to achieve a target concentration of 55 μM. Samples were collected pre- and post-UVA illumination with a light dose of 6.3 J/cm^2 for determination of bacterial titers by standard colony forming unit assay and S-59 concentration by HPLC.
# adenovirus type 5 (Ad5) = assay: Adenovirus type 5 inactivation in platelet units with amotosalen/UVA, plaque assay; assay type: cell-based; conditions: for Log Reduction / Post-UVA PFU/mL: 250 mL platelets, UVA 3.8 J/cm^2
# Protocol: Another study was performed evaluating pathogen inactivation with treatment profiles from Example 1 and the non-enveloped virus adenovirus type 5 (Ad5). Units of platelets, prepared in 47% plasma/53% PAS at a volume of 250 mL, were inoculated with Ad5 (targeting the final concentration in unit of approximately 4.5 or 6.5 log PFU/mL), and dosed with the target amotosalen concentration (45 μM or 50 μM) in an illumination container of an INTERCEPT® Blood System processing set. The units were mixed well, and samples were collected from each unit prior to UV illumination to determine pre-treatment viral titers and amotosalen concentration. The Ad5-contaminated platelet units were then subjected to a UVA light dose of 3.8 J/cm^2 using an illuminator with LED light sources having peak wavelength between 340-350 nm. Samples were collected post-illumination and both the pre- and post-UVA illumination samples were analyzed by standard plaque assay to determine the level of virus inactivation.
# bluetongue virus (BTV) = assay: Bluetongue virus inactivation in platelet units with amotosalen/UVA, plaque assay; assay type: cell-based
# Protocol: A study was performed to evaluate pathogen inactivation with treatment profiles from Example 1 and the non-enveloped virus bluetongue virus (BTV). Units of platelets, prepared in 47% plasma/53% PAS at a volume of 250 mL, were inoculated with BTV (targeting the final concentration in unit of approximately 4.5 log PFU/mL), and dosed with the target amotosalen concentration (40 μM, 50 μM, 60 μM, or 70 μM) in an illumination container of an INTERCEPT® Blood System processing set. The units were mixed well, and samples were collected from each unit prior to UV illumination to determine pre-treatment viral titers and amotosalen concentration. The BTV-contaminated platelet units were then subjected to a UVA light dose of 3.8 J/cm^2 using an illuminator with LED light sources having peak wavelength between 340-350 nm. Samples were collected post-illumination, and both the pre- and post-UVA illumination samples were analyzed by standard plaque assay to determine the level of virus inactivation.
# as §1
# [2] = target S-59 45 μM, Pre-UVA 4.1 Log PFU/mL
# [3] = target S-59 50 μM, Pre-UVA 4.5 Log PFU/mL
# [4] = target S-59 50 μM, Pre-UVA 6.7 Log PFU/mL
# [5] = device-dosed S-59 target 55 μM, 450 mL platelets, 1.3 L container, UVA 6.3 J/cm^2
# [6] = target S-59 40 μM, 250 mL platelets, UVA 3.8 J/cm^2
# [7] = target S-59 50 μM, 250 mL platelets, UVA 3.8 J/cm^2
# [8] = target S-59 60 μM, 250 mL platelets, UVA 3.8 J/cm^2
# [9] = target S-59 70 μM, 250 mL platelets, UVA 3.8 J/cm^2
smiles,measurement,setting,value
"Cc1oc2c(C)c3oc(=O)cc(C)c3cc2c1COCCN [S-59, 3-(2-aminoethoxymethyl)-2,5,9-trimethylfuro[3,2-g]chromen-7-one]",Post-UVA S-59,"[1]; 1.0 L container, 200 mL platelets, 2.8 J/cm^2",5.22 ± 0.50 µM
same,Post-UVA S-59,"[1]; 1.0 L container, 200 mL platelets, 3.0 J/cm^2",4.40 ± 0.64 µM
same,Post-UVA S-59,"[1]; 1.0 L container, 200 mL platelets, 3.2 J/cm^2",3.71 ± 0.07 µM
same,Post-UVA S-59,"[1]; 1.0 L container, 200 mL platelets, 3.4 J/cm^2",3.09 ± 0.18 µM
same,Post-UVA S-59,"[1]; 1.0 L container, 250 mL platelets, 3.4 J/cm^2",4.25 ± 0.13 µM
same,Post-UVA S-59,"[1]; 1.0 L container, 250 mL platelets, 3.6 J/cm^2",3.83 ± 0.74 µM
same,Post-UVA S-59,"[1]; 1.0 L container, 250 mL platelets, 3.8 J/cm^2",3.81 ± 0.49 µM
same,Post-UVA S-59,"[1]; 1.0 L container, 250 mL platelets, 4.0 J/cm^2",3.11 ± 1.18 µM
same,Post-UVA S-59,"[1]; 1.0 L container, 300 mL platelets, 4.1 J/cm^2",7.13 ± 2.95 µM
same,Post-UVA S-59,"[1]; 1.0 L container, 300 mL platelets, 4.3 J/cm^2",6.85 ± 3.00 µM
same,Post-UVA S-59,"[1]; 1.0 L container, 300 mL platelets, 4.6 J/cm^2",2.86 ± 1.36 µM
same,Post-UVA S-59,"[1]; 1.0 L container, 300 mL platelets, 4.8 J/cm^2",3.63 ± 1.66 µM
same,Post-UVA S-59,"[1]; 1.3 L container, 300 mL platelets, 4.1 J/cm^2",4.64 ± 0.13 µM
same,Post-UVA S-59,"[1]; 1.3 L container, 300 mL platelets, 4.3 J/cm^2",3.43 ± 1.30 µM
same,Post-UVA S-59,"[1]; 1.3 L container, 350 mL platelets, 4.8 J/cm^2",3.54 ± 1.01 µM
same,Post-UVA S-59,"[1]; 1.3 L container, 350 mL platelets, 5.0 J/cm^2",2.98 ± 0.91 µM
same,Post-UVA S-59,"[1]; 1.3 L container, 450 mL platelets, 6.1 J/cm^2",3.79 ± 0.49 µM
same,Post-UVA S-59,"[1]; 1.3 L container, 450 mL platelets, 6.3 J/cm^2",3.56 ± 0.37 µM
same,Post-UVA S-59,"[1]; BTV-inoculated units, 450 mL platelets, 1.3 L container, 6.3 J/cm^2",3.0 ± 0.7 µM
same,Post-UVA S-59,"[1]; K. pneumoniae-inoculated units, 450 mL platelets, 1.3 L container, 6.3 J/cm^2",3.2 ± 0.5 µM
same,viral inactivation,adenovirus type 5 (Ad5); each of the 45 μM or 50 μM target amotosalen input concentrations,greater than 4 logs
same,Log Reduction,adenovirus type 5 (Ad5); [2],>4.1 ± 0.2 log
same,Post-UVA PFU/mL,adenovirus type 5 (Ad5); [2],0.0 ± 0.0 PFU/mL
same,Log Reduction,adenovirus type 5 (Ad5); [3],4.5 ± 0.0 log
same,Post-UVA PFU/mL,adenovirus type 5 (Ad5); [3],0.0 ± 0.0 PFU/mL
same,Log Reduction,adenovirus type 5 (Ad5); [4],≥6.3 ± 0.5 log
same,Post-UVA PFU/mL,adenovirus type 5 (Ad5); [4],≤6.9 ± 12.7 PFU/mL
same,Log Reduction,bluetongue virus (BTV); [5],5.0±0.4 Log (pfu/mL)
same,Post-UVA titer,bluetongue virus (BTV); [5],0.7 ± 0.6 pfu/mL
same,viral inactivation,"bluetongue virus (BTV); each of the four target amotosalen input concentrations (40, 50, 60, 70 μM)",greater than 4 logs
same,Log Reduction,bluetongue virus (BTV); [6],4.4 ± 0.1 log
same,Post-UVA PFU/mL,bluetongue virus (BTV); [6],0.3 ± 0.1 PFU/mL
same,Log Reduction,bluetongue virus (BTV); [7],4.4 ± 0.4 log
same,Post-UVA PFU/mL,bluetongue virus (BTV); [7],0.1 ± 0.1 PFU/mL
same,Log Reduction,bluetongue virus (BTV); [8],>4.6 ± 0.5 log
same,Post-UVA PFU/mL,bluetongue virus (BTV); [8],0.02 ± 0.03 PFU/mL
same,Log Reduction,bluetongue virus (BTV); [9],4.2 ± 0.1 log
same,Post-UVA PFU/mL,bluetongue virus (BTV); [9],0.1 ± 0.2 PFU/mL
